# Test results published in patent US10827753B2, “Compositions and methods for controlling nematodes” (Monsanto Technology LLC, priority 2007, dated 2020).
# Marks after values point to notes of the source that are not given here.
# Assays:
# [1] = system: Meloidogyne incognita; assay: M. incognita miniaturized greenhouse assay on cucumber seedlings (root galling); format: in vivo; parameters: key to 1 ppm gall ratings / 1 ppm gall rating: mean of 3 gall ratings: 0=0-5%, 1=6-20%, 2=21-50%, 3=51-100% root galled
# Experimental: The test compound is dissolved in an acetone solution and added to water. A sprouted cucumber seedling is placed into a vial with dry sand and the water-chemical solution is added immediately. Twenty four hours later Meloidogyne incognita eggs are added to the vials and 10 to 12 days later the roots are evaluated for nematode galling.
# Cucumber seeds are sprouted for 3 days in moist paper towels. Acceptable sprouts should be 3 to 4 cm long with several lateral roots just emerging. Stock solutions of chemistry are prepared in a mixture of acetone and Triton X100 (412 mg in 500 mL) to a final concentration of 5 mg/mL. The chemical stock solution is then added to 10 mL deionized water plus 0.015% Triton X100 and mixed thoroughly. This is enough to test each condition in triplicate. Ten mL dry sand is added to each vial. At this time the solubility of the chemistry is visually determined and recorded as either ppt (large precipitates) or cloudy (fine precipitates). Seedlings are planted by tilting the vial and laying the seedling in the correct orientation so that the cotyledons are just above the sand and then tilting back to cover the radicles with sand. 3.3 ml water/chemical mix is added to each vial and the vials placed in racks under fluorescent light banks. The vials are inoculated two days after planting by adding 500 vermiform M. incognita eggs to each vial in 50 uL of deionized or spring water. The vials are then kept under the fluorescent lamps at ambient room temperature and watered as needed with 1 mL deionized water, usually twice during duration of test. Harvest of the cucumber plants is done 10 to 12 days after inoculation by washing sand off the roots. A root gall rating and visual phytotoxicity rating is assigned using the following scales: Gall rating scale (Gall: % root mass galled): 0=0-5%; 1=6-20%; 2=21-50%; and 3=51-100%. The average of the triplicate gall rating is then calculated: green=0.00-0.33 (no galls); yellow=0.67-1.33 (mild galling); orange=1.67-2.33 (moderate galling); red=2.67-3.00 (severe galling). Visual phytotoxicity scale is also assigned (Vis. tox; visual reduction in root mass compared to the control): rs1=mild stunting; rs2=moderate stunting; rs3=severe stunting.
# [2] = system: sting (Belonolaimus longicaudatus) nematodes; assay: Sting nematode bench top soil assay; format: in vivo
# Experimental: Populations of sting (Belonolaimus longicaudatus) nematodes are maintained on St. Augustine turf grass on soil in 15-cm pots. At test initiation the turf is removed from the pots and the soil containing nematode eggs, juveniles, and adults is subdivided into pots each containing a volume of 125 cm^3′ The compounds to be tested are dissolved in 3 ml of acetone using 3, 6, or 15 mg to achieve equivalent surface area application rates of 2, 4, or 10 kg/ha, respectively. The 3 ml acetone stock solution is added to 30 ml of water, and 5 ml of that solution is used to drench each of 6 replicate test pots prepared as described above. The treated pots containing nematodes are incubated in the laboratory at ambient temperature of approximately 25° C. After 3 days the soil from each pot is washed onto a modified Baermann apparatus comprised of a screen supporting a layer of filter paper on which the soil sample is placed and set in a dish of water. The samples are then incubated at 25° C. for 24 hours to allow the live nematodes to migrate through the paper and screen and into a water reservoir to be collected for counting with a light microscope. Nematodes that have been killed or immobilized by the test compounds are not able to migrate into the reservoir.
# [3] = system: Meloidogyne incognita; assay: Fall nematicidal field testing on squash microplots; format: in vivo
# Description: The test site was located at 3511 Highway F in New Melle, Mo., Saint Charles county. The soil was a native prairie/pasture covering silty clay loam soil. Holes were dug using a Bobcat 763 skid loader with a 12-inch auger to a depth of 18 inches. Total volume of each hole was about 1.2 cubic feet. Six cubic yards of topsoil and 9 tons of river sand were purchased from Dardenne Farms Topsoil. Mixing to a ratio of 4 volumes sand to 1 volume soil was accomplished using a trailer-mounted 9 cubic foot concrete mixer. Holes were filled and then re-filled 5 days later after settling. The mixture was 92.5% sand, 2.5% silt, and 5% clay. Organic matter was 0.2% and pH was 6.8.
# Treatments were arranged in a block design with the blocks laid out perpendicular to the primary slope and parallel to secondary slope. There are 7 inoculated controls and 5 non-inoculated controls and the distributions of disease severity appeared independent of location.
# Application rates are expressed as kg of active material per hectare, and the mg per plot is based on the surface area of the bored and filled holes (0.000008559 Ha). The DC compounds were formulated immediately before application as follows: 1) the amount required to treat all six replicates was dissolved in 300 ml of acetone, 2) for each plot 50 ml of that solution was added to a graduated cylinder with 2 ml of 12.5% Triton X100 and the volume was raised to 500 ml with tap water. The resultant mix is the same as used in the standard greenhouse assays (10% acetone, 0.05%×100). The oxamyl treatments were prepared from Vydate 2 L formulated the same way. The 500 ml was placed in a watering can and the entire volume was evenly sprinkled over the surface of the plot. No runoff occurred and pooling, if any, was short lived. The final drench volume was 0.58 ml/cm^2, compared to 0.2 ml/cm^2 used in our greenhouse, however the microplots are much deeper so the drench volume applied per soil volume treated is roughly the same.
# Meloidogyne incognita eggs were harvested over a two week period and stored at approximately 5° C. until needed. A stock of 5.6 million vermiform eggs was adjusted to 9000/ml in 620 ml. One day after treatment, two holes were made in each plot about 7 cm apart and equidistant from the squash plants. Five ml of egg suspension was pipetted into each hole, which was then sealed and the plot lightly watered. A total of 90,000 vermiform eggs were added to each plot.
# The first root evaluation was at 28 DAT. The tops were cut off and weighed immediately in the field, and the roots were carefully dug out so as not to disturb the remaining plant.
# [4] = system: C. elegans; assay: Three day C. elegans well assay; format: in vivo; settings: for EC50 L4 1D / EC50 L1 1D: one day of exposure; for EC50 L1 1D: L1 larvae
# Experimental: Various compounds were tested for nematicidal activity against C. elegans using contact assays in wells. The assays were performed as described below. The test compounds were solubilized in DMSO at 10 mg/ml to create 100× stock solutions. A dilution series was created by diluting the stock solution with DMSO. For each well assay 4 ul of the appropriate dilution is added to a well of a test plate. A 400 ul aliquot of bacterial stock (in M9 buffer with ampicillin and nystatin) are added to each well of the test plate. Worms are added and the test plate placed on a rotary shaker and held at 20° C. Worms are examined and scored at 4 hrs, 24 hrs, 48 hrs and 72 hours. L1 worms and L4 worms were used in the assay. L1 worms are prepared by plating eggs on a plate without a bacterial feeding layer. The eggs hatch and arrest at the L1 stage. This L1 stage population is then used to create a stock for the experiments. To create an L4 stage stock a small number of worms are taken from an overgrown and starved plate of worms and seeded on a plate with a bacterial feeder layer. A 25 ul aliquot of worms is added to each well in the assay.
# [5] = system: root knot nematode (RKN); assay: RKN greenhouse soil assay on cucumber plants; format: in vivo, Meloidogyne incognita; settings: 0 day treatment, test c
# Description: Cucumber seeds are planted in a sandy soil mixture in two inch square plastic pots. When the cotyledons are fully opened and just as the first leaf begins to emerge, usually 7 days after planting, chemistry for the 7 day treatment is applied. One week later the chemistry for the 0 day treatment is applied. Separate plants are used for each application. The plants are generally in the 1-2 leaf stage now. At least four hours after the chemistry application the pots are inoculated with root knot nematode (RKN) eggs. Plants are rated for galling 14 days after the egg inoculation.
# One milligram of chemistry per four pots is equal to one kilogram per hectare of chemical. A standard test uses four replications. For rates above 2 kg/ha, the desired amount of chemical is weighed into a 30 ml vial (example: 8 kg/ha rate=8 mg chemical in 30 ml vial). The chemical is dissolved in 2 ml of appropriate solvent, generally acetone. For rates below 2 kg/ha, 2 milligrams of chemistry is weighed into the vial and dissolved in 2 ml of the solvent. The appropriate amount of chemical concentrate is then pipetted into a separate 30 ml vial and solvent is added to bring the volume to 2 ml (example 0.5 kg/ha=0.5 ml of concentrate+1.5 ml solvent). Each dissolved concentrate is then brought to a total of 20 milliliters using 0.05% Triton X 100 surfactant solution.
# Pots to be treated are moist but not saturated. To each of four pots, five milliliters of the appropriate chemical solution is pipetted to the media surface making sure to avoid contact with the base of the plant. Immediately following chemical application, using a mist nozzle, the pot surface is wetted sufficiently to saturate the pot watering in the chemistry. The chemical application is done in the morning.
# Nematode eggs, either SCN or RKN, are added to distilled water to create a concentration of 1000 vermiform eggs […]. At least four hours after chemical treatment the eggs are applied to the treated pots plus non-treated check plants. A small hole about 1 cm deep is punched into the pot surface. One milliliter of the nematode egg slurry is pipetted into the hole. Immediately afterwards the hole is gently covered. Watering of the test plants is then restricted to only water as needed to prevent wilt for a period of 24 hours. After the 24 hour restricted watering, normal sub-irrigation watering is done for the duration of the test.
# [6] = system: Meloidogyne incognita; assay: Summer field evaluation of pre-plant incorporated compounds on squash; format: in vivo
# Experimental: Test plots of 33 cm diameter holes were bored 41 cm deep into clay soil and filled with a mixture of 80% sand and 20% silt loam soil. Technical compound for each treatment was dissolved in 50 ml acetone containing 250 ul of Triton X-100 surfactant. This solution was added to 450 ml water and poured onto 95 liters of sand/soil mixture in a rotating drum mixer. While continuing to rotate the mixing drum 66 grams of chopped, galled, tomato roots was added and thoroughly distributed. The treated soil was sufficient to fill the top 15 cm of each of the 6 replicate plots, thus simulating a PPI treatment. The plots were then watered lightly and a mixture of M. incognita eggs and larvae were injected 5 cm deep at 5 points within the plot (100 k eggs/larvae in 10 ml per plot). Three-week old squash (cv. Liberator III) with 1 fully expanded true leaf was planted 4 days after soil treatment, one per plot.
# [7] = system: CD-1/Swiss derived albino mice; format: in vivo; settings: 500 mg/kg oral, three female mice, observed up to 14 days
# Experimental: Acute oral toxicity testing was performed in mice in accordance with test method P203.UDP, as administered by Eurofins/Product Safety Laboratories (Dayton, N.J.). CD-1/Swiss derived albino mice were obtained and group housed in suspended solid bottom caging. The mice were fed rodent chow and filtered tap water was supplied ad libitum. Following acclimation to the laboratory setting, a group of animals was fasted overnight by removing food from the cages. After the fasting period, three female mice were selected based on vitality and initial body weights. The individual compound doses were calculated from these body weights.
# The test substance was prepared as a 1% (50 mg/kg) or 5% (500 mg/kg) weight to weight (w/w) mixture in a 0.5% w/w solution of carboxymethylcellulose (CMC) in distilled water. A tissue homogenizer was used to create a homogeneous mixture. A dose of 50 or 500 mg/kg was administered to three healthy mice per dose level by oral intubation using a ball-tipped gavage needle attached to a syringe. After administration, the animals were returned to their cages, and feed was replaced immediately after dosing.
# Body weights were recorded prior to initiation and on Days 7 and 14 or a soon as possible after death.
# [8] = L4 larvae, two days of exposure
compound,measurement,setting,value
Clc1ccc(-c2nnc(-c3cccs3)o2)cc1 [compound 4559],1 ppm gall ratings,[1]; Table 1B test a,1^a (1=6-20%)
same,8 ppm gall ratings,"[1]; 8 ppm, average of triplicate gall rating, scale 0-3 (% root mass galled)",0 (0=0-5%)
same,Number of nematodes recovered from treated soil after 3 days incubation with the compound,[2]; 2 kg/ha,39
same,Number of nematodes recovered from treated soil after 3 days incubation with the compound,[2]; 4 kg/ha,47
same,Number of nematodes recovered from treated soil after 3 days incubation with the compound,[2]; 10 kg/ha,33
same,RG28 = % root galls at 28 days after treatment,"[3]; 2 kg ai/ha drench, squash",34.2%
same,RG43 = % root galls at 43 days after treatment,"[3]; 2 kg ai/ha drench, squash",24.0%
same,control of root galling compared with oxamyl at an equivalent rate,"[3]; 2 kg/ha, 43 day time point",significantly better than oxamyl
Cc1cc(Br)ccc1-c1noc(-c2cccs2)n1 [compound 5824],EC50 L4 1D,[4]; L4 larvae,no
same,EC50 L4 2D,[4]; [8],no
Clc1ccccc1-c1cnc(-c2ccco2)o1 [compound 5828],EC50 L4 1D,[4]; L4 larvae,no
same,EC50 L4 3D,"[4]; L4 larvae, three days of exposure",no
same,EC50 L4 2D,[4]; [8],no
Cc1cc(F)ccc1-c1noc(-c2cccs2)n1 [compound 5845],EC50 L1 1D,[4],no
same,EC50 L4 1D,[4]; L4 larvae,no
Fc1ccc(-c2noc(-c3cccs3)n2)c(F)c1 [compound 5847],EC50 L1 1D,[4],no
same,EC50 L4 1D,[4]; L4 larvae,no
Fc1ccc(-c2noc(-c3ccco3)n2)c(F)c1 [compound 5849],EC50 L4 1D,[4]; L4 larvae,no
same,EC50 L4 2D (F1),"[4]; L4 larvae, two days of exposure, effects on the second generation larvae (F1)",(6.3 F1) parts per million
Clc1ccc(-c2nsc(-c3ccco3)n2)c(Cl)c1 [compound 5960],percent control (galling reduction) relative to the control blank treatment,[5]; 0.05 kg/ha,— — 75^c percent
same,percent control (galling reduction) relative to the control blank treatment,[5]; 0.1 kg/ha,— — 75^c percent
same,percent control (galling reduction) relative to the control blank treatment,[5]; 0.25 kg/ha,— — 76^c percent
same,0-3 vigor 16 DAP,"[6]; 4 kg (kg/ha) PPI, squash",3.0
same,0-3 vigor 21 DAP,"[6]; 4 kg (kg/ha) PPI, squash",3.0
same,feeder root (3 = ave) 31 DAP,"[6]; 4 kg (kg/ha) PPI, squash",3.3
same,gall % 31 DAP,"[6]; 4 kg (kg/ha) PPI, squash",24%
same,root wgt (g) 31 DAP,"[6]; 4 kg (kg/ha) PPI, squash",32.6 g
same,top wgt (lbs) 31 DAP,"[6]; 4 kg (kg/ha) PPI, squash",1.58 lbs
same,total fruit (lbs),"[6]; 4 kg (kg/ha) PPI, squash",1.61 lbs
same,control of M. incognita (in words),[6]; PPI application at 4 kg/ha,significant control
same,1 ppm gall ratings,[1]; Table 1B test e,0.33^e
same,"mortality, signs of gross toxicity and behavioral changes",[7],"all animals survived, gained body weight, and appeared active and healthy"
